Assay results: the kinase profiling compilation of Christmann-Franck et al. (2016)

Key:
Assay in all cases: KINOMEscan competition binding
Details in all cases: compound 10.0 µM
MTOR (human) = MTOR (human) (UniProt P42345)
MAP2K7 (human) = MAP2K7 (human) (UniProt O14733)
FGFR4 (human) = FGFR4 (human) (UniProt P22455)
CSNK1G1 (human) = CSNK1G1 (human) (UniProt Q9HCP0)
CSNK2A2 (human) = CSNK2A2 (human) (UniProt P19784)
PIK3C2B (human) = PIK3C2B (human) (UniProt O00750)
ANKK1 (human) = ANKK1 (human) (UniProt Q8NFD2)
ADCK3 (human) = ADCK3 (human) (UniProt Q8NI60)
PRKACA (human) = PRKACA (human) (UniProt P17612)
EPHA4 (human) = EPHA4 (human) (UniProt P54764)
MAPK13 (human) = MAPK13 (human) (UniProt O15264)
SYK (human) = SYK (human) (UniProt P43405)
NEK7 (human) = NEK7 (human) (UniProt Q8TDX7)
NEK7 (human), sequence (Q8TDX7 whole entry, looked up): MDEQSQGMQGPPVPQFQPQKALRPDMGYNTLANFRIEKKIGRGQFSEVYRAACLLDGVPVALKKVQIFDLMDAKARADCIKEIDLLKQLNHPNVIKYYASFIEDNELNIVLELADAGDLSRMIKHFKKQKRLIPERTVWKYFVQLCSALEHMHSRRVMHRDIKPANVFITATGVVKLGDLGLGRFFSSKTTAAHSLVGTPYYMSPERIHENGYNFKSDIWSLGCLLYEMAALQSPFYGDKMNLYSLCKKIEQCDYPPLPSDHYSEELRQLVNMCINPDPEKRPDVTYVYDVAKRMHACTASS

YSK4 (human) = YSK4 (human) (UniProt Q56UN5)
CAMK2B (human) = CAMK2B (human) (UniProt Q13554)
MAST1 (human) = MAST1 (human) (UniProt Q9Y2H9)
MAP3K11 (human) = MAP3K11 (human) (UniProt Q16584)
MAP3K11 (human), sequence (Q16584 whole entry, looked up): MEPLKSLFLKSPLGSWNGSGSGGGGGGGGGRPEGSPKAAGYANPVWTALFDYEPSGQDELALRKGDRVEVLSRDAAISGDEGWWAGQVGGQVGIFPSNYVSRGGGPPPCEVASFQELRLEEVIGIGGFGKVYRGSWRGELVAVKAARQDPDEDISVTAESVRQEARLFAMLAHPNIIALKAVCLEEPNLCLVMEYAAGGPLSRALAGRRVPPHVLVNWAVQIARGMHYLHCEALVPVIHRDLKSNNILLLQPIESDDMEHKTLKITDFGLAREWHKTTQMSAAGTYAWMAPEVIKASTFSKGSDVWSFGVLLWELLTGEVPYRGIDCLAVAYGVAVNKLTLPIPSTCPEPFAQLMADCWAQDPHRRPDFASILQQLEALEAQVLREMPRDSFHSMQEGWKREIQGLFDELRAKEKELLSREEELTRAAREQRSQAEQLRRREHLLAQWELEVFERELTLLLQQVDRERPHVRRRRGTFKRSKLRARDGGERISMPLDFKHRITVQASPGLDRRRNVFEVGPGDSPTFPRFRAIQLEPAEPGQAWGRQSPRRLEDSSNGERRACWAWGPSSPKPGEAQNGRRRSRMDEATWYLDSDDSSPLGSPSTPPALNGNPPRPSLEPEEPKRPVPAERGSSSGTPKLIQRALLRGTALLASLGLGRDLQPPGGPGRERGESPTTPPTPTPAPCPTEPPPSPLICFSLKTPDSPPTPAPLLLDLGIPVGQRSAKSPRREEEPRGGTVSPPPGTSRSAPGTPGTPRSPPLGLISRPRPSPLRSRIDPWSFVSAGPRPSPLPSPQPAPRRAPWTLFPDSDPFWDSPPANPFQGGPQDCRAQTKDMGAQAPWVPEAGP

CDKL2 (human) = CDKL2 (human) (UniProt Q92772)
MAP3K6 (human) = MAP3K6 (human) (UniProt O95382)
STK3 (human) = STK3 (human) (UniProt Q13188)
MKNK2 (human) = MKNK2 (human) (UniProt Q9HBH9)
EPHB4 (human) = EPHB4 (human) (UniProt P54760)
EPHB4 (human), sequence (P54760 whole entry, looked up): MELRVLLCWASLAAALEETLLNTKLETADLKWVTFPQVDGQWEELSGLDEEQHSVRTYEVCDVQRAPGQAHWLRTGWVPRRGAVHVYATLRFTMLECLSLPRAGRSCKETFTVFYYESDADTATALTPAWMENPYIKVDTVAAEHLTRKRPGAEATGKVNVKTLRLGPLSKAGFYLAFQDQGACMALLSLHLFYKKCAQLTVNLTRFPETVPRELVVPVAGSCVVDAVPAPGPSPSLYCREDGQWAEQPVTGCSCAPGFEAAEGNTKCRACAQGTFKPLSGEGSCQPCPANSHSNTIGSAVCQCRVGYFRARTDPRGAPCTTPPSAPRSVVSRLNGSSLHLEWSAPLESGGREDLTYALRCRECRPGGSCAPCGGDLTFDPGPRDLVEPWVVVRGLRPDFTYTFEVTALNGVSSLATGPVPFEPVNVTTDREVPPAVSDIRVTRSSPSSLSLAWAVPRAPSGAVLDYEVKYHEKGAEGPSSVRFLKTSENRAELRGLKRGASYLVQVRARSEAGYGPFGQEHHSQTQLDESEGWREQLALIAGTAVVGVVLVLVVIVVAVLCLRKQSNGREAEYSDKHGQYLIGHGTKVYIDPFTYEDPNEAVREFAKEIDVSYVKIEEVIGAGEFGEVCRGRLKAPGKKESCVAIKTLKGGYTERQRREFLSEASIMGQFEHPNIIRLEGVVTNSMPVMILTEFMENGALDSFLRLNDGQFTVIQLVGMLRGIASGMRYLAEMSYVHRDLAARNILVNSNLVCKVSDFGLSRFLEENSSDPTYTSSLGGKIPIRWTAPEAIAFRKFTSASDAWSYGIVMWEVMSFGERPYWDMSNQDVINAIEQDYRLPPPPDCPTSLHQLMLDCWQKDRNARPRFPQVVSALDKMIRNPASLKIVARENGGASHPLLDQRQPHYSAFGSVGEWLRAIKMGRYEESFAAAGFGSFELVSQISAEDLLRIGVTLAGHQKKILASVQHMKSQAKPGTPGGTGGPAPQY

PRPF4B (human) = PRPF4B (human) (UniProt Q13523)
CAMKK2 (human) = CAMKK2 (human) (UniProt Q96RR4)
CLK4 (human) = CLK4 (human) (UniProt Q9HAZ1)
CLK4 (human), sequence (Q9HAZ1 whole entry, looked up): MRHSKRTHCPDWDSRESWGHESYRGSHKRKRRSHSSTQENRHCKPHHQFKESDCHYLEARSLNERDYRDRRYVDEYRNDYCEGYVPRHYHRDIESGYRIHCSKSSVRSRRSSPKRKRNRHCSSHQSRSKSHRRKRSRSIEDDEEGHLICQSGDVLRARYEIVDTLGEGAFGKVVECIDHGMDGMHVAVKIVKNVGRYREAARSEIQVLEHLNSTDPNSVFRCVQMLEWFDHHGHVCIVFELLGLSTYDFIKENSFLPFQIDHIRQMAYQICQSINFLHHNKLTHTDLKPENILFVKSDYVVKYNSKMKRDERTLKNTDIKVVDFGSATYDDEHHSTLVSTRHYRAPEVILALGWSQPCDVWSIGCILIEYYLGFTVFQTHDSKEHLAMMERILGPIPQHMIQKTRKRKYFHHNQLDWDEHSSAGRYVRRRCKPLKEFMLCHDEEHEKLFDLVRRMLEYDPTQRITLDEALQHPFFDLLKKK

RET (human) = RET (human) (UniProt P07949)
DAPK1 (human) = DAPK1 (human) (UniProt P53355)
PRKCH (human) = PRKCH (human) (UniProt P24723)
CDK17 (human) = CDK17 (human) (UniProt Q00537)
PKMYT1 (human) = PKMYT1 (human) (UniProt Q99640)
MAP2K4 (human) = MAP2K4 (human) (UniProt P45985)
EPHB2 (human) = EPHB2 (human) (UniProt P29323)
CASK (human) = CASK (human) (UniProt O14936)
RPS6KA6 KD1 (human) = RPS6KA6 KD1 (human) (UniProt Q9UK32)
MERTK (human) = MERTK (human) (UniProt Q12866)
DDR2 (human) = DDR2 (human) (UniProt Q16832)
AKT1 (human) = AKT1 (human) (UniProt P31749)
EPHA3 (human) = EPHA3 (human) (UniProt P29320)
STK36 (human) = STK36 (human) (UniProt Q9NRP7)
CPK1 (P.falciparum) = system: CPK1 (P.falciparum)

FGFR4 (human), sequence (P22455 whole entry, looked up): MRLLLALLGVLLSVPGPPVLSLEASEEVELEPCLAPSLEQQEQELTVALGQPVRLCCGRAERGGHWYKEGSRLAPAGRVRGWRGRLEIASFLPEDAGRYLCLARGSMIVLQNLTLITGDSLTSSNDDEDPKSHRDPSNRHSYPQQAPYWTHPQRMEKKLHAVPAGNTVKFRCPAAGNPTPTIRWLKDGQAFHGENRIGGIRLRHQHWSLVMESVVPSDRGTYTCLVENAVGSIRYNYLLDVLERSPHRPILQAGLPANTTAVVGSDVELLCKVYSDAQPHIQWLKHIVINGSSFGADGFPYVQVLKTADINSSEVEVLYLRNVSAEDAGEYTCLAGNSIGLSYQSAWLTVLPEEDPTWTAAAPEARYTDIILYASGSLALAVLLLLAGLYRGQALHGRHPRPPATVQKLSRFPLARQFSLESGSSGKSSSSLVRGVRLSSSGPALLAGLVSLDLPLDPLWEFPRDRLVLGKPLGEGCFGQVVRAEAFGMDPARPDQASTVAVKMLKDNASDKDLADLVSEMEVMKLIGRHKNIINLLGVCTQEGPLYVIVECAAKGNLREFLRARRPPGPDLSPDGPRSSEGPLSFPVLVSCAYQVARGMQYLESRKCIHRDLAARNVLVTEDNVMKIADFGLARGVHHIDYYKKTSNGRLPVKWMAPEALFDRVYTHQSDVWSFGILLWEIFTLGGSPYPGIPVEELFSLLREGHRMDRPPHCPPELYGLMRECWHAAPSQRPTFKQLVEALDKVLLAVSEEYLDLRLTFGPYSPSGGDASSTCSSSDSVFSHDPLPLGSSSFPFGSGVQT
PIK3C2B (human), sequence (O00750 whole entry, looked up): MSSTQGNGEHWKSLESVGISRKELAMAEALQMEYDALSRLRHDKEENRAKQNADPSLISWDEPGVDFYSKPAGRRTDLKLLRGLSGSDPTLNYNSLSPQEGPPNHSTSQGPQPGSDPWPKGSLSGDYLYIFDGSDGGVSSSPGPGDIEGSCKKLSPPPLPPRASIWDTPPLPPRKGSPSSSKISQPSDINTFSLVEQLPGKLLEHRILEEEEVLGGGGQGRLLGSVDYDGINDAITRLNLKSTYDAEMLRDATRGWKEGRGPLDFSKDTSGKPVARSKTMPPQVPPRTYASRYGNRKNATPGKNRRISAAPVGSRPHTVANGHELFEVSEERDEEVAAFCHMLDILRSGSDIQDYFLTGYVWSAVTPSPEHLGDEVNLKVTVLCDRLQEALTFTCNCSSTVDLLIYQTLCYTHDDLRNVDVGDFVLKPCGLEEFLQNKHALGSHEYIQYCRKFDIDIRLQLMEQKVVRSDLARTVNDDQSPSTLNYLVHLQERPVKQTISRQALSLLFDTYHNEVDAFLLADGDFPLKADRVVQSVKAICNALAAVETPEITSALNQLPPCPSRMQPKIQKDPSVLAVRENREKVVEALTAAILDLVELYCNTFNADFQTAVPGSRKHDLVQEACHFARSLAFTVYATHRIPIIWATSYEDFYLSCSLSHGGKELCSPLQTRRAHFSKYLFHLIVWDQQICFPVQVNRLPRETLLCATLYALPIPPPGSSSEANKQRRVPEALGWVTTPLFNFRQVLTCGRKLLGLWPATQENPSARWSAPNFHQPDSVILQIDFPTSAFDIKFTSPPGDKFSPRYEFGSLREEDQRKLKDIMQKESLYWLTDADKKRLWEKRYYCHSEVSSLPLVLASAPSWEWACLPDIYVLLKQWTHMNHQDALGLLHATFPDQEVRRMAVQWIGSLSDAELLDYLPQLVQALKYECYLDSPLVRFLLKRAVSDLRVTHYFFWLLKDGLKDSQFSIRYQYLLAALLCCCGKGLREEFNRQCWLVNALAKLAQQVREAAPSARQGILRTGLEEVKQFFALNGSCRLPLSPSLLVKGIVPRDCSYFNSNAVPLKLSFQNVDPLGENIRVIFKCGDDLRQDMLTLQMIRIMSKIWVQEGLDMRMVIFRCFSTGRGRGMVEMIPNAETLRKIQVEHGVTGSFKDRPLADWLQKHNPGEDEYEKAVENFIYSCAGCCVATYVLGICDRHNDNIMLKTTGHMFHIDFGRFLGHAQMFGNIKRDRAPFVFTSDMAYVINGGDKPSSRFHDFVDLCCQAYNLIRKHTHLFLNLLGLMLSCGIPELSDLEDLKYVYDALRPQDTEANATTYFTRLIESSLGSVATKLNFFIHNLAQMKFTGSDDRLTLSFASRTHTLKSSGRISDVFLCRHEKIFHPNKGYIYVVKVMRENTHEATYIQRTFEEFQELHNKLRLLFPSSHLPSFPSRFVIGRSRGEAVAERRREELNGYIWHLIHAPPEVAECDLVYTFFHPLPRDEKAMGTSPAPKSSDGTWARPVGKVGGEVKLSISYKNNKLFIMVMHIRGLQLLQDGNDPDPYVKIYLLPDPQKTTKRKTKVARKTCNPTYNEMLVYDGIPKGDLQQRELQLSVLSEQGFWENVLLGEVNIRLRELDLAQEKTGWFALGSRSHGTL

Compound	kinase still bound, per cent of control (MTOR (human))	kinase still bound, per cent of control (FGFR4 (human))	kinase still bound, per cent of control (CSNK2A2 (human))	kinase still bound, per cent of control (PIK3C2B (human))	kinase still bound, per cent of control (ANKK1 (human))	kinase still bound, per cent of control (ADCK3 (human))	kinase still bound, per cent of control (PRKACA (human))	kinase still bound, per cent of control (EPHA4 (human))	kinase still bound, per cent of control (MAPK13 (human))	kinase still bound, per cent of control (SYK (human))	kinase still bound, per cent of control (NEK7 (human))	kinase still bound, per cent of control (CAMK2B (human))	kinase still bound, per cent of control (MAST1 (human))	kinase still bound, per cent of control (MAP3K11 (human))	kinase still bound, per cent of control (CDKL2 (human))	kinase still bound, per cent of control (MAP3K6 (human))	kinase still bound, per cent of control (STK3 (human))	kinase still bound, per cent of control (EPHB4 (human))	kinase still bound, per cent of control (PRPF4B (human))	kinase still bound, per cent of control (CAMKK2 (human))	also measured
COc1cc(N2CCN(C)CC2)ccc1Nc1nc(N)c(C(=O)c2c(Cl)cccc2Cl)s1	100%	89%	88%	98%	96%	93%	91%	90%	63%	59%	100%	20%	24%	96%	93%	100%	85%	97%	100%	14%	kinase still bound, per cent of control (MAP2K7 (human)): 100%; kinase still bound, per cent of control (CSNK1G1 (human)): 100%; kinase still bound, per cent of control (YSK4 (human)): 98%; kinase still bound, per cent of control (MKNK2 (human)): 77%; kinase still bound, per cent of control (CLK4 (human)): 50%; kinase still bound, per cent of control (RET (human)): 97%; kinase still bound, per cent of control (DAPK1 (human)): 85%; kinase still bound, per cent of control (PRKCH (human)): 93%; kinase still bound, per cent of control (CDK17 (human)): 42%; kinase still bound, per cent of control (PKMYT1 (human)): 100%; kinase still bound, per cent of control (MAP2K4 (human)): 70%; kinase still bound, per cent of control (EPHB2 (human)): 100%; kinase still bound, per cent of control (CASK (human)): 35%; kinase still bound, per cent of control (RPS6KA6 KD1 (human)): 79%; kinase still bound, per cent of control (MERTK (human)): 87%; kinase still bound, per cent of control (DDR2 (human)): 100%; kinase still bound, per cent of control (AKT1 (human)): 100%; kinase still bound, per cent of control (EPHA3 (human)): 82%; kinase still bound, per cent of control (STK36 (human)): 100%
Cc1ccc2nc(NCCN)c3ncc(C)n3c2c1	87%	100%	86%	100%	99%	61%	100%	100%	100%	100%	100%	73%	100%	87%	82%	100%	90%	100%	66%	93%	kinase still bound, per cent of control (CPK1 (P.falciparum)): 52%; kinase still bound, per cent of control (MAP2K7 (human)): 100%; kinase still bound, per cent of control (CSNK1G1 (human)): 94%; kinase still bound, per cent of control (YSK4 (human)): 16%; kinase still bound, per cent of control (MKNK2 (human)): 90%; kinase still bound, per cent of control (CLK4 (human)): 53%; kinase still bound, per cent of control (RET (human)): 100%; kinase still bound, per cent of control (DAPK1 (human)): 47%; kinase still bound, per cent of control (PRKCH (human)): 94%; kinase still bound, per cent of control (CDK17 (human)): 92%; kinase still bound, per cent of control (PKMYT1 (human)): 84%; kinase still bound, per cent of control (MAP2K4 (human)): 100%; kinase still bound, per cent of control (EPHB2 (human)): 100%; kinase still bound, per cent of control (CASK (human)): 100%; kinase still bound, per cent of control (RPS6KA6 KD1 (human)): 88%; kinase still bound, per cent of control (MERTK (human)): 100%; kinase still bound, per cent of control (DDR2 (human)): 100%; kinase still bound, per cent of control (AKT1 (human)): 100%; kinase still bound, per cent of control (EPHA3 (human)): 100%
CCCS(=O)(=O)Nc1ccc(F)c(C(=O)c2c[nH]c3ncc(-c4ccc(Cl)cc4)cc23)c1F	100%	100%	100%	100%	91%	100%	100%	100%	100%	66%	100%	98%	100%	81%	49%	100%	1.9%	100%	92%	100%	kinase still bound, per cent of control (CPK1 (P.falciparum)): 0%; kinase still bound, per cent of control (CSNK1G1 (human)): 100%; kinase still bound, per cent of control (YSK4 (human)): 53%; kinase still bound, per cent of control (CLK4 (human)): 100%; kinase still bound, per cent of control (RET (human)): 43%; kinase still bound, per cent of control (DAPK1 (human)): 83%; kinase still bound, per cent of control (PRKCH (human)): 100%; kinase still bound, per cent of control (CDK17 (human)): 86%; kinase still bound, per cent of control (PKMYT1 (human)): 100%; kinase still bound, per cent of control (MAP2K4 (human)): 5%; kinase still bound, per cent of control (EPHB2 (human)): 99%; kinase still bound, per cent of control (CASK (human)): 80%; kinase still bound, per cent of control (RPS6KA6 KD1 (human)): 82%; kinase still bound, per cent of control (MERTK (human)): 60%; kinase still bound, per cent of control (DDR2 (human)): 35%; kinase still bound, per cent of control (AKT1 (human)): 100%; kinase still bound, per cent of control (EPHA3 (human)): 44%; kinase still bound, per cent of control (STK36 (human)): 4.6%
CCOc1cc2ncc(C#N)c(Nc3ccc(OCc4ccccn4)c(Cl)c3)c2cc1NC(=O)/C=C/CN(C)C	100%	100%	72%	100%	100%	95%	95%	96%	99%	65%	100%	100%	100%	85%	100%	87%	1.4%	91%	92%	89%	kinase still bound, per cent of control (CPK1 (P.falciparum)): 88%; kinase still bound, per cent of control (MAP2K7 (human)): 49%; kinase still bound, per cent of control (MKNK2 (human)): 99%; kinase still bound, per cent of control (CLK4 (human)): 100%; kinase still bound, per cent of control (DAPK1 (human)): 98%; kinase still bound, per cent of control (PRKCH (human)): 100%; kinase still bound, per cent of control (CDK17 (human)): 100%; kinase still bound, per cent of control (PKMYT1 (human)): 84%; kinase still bound, per cent of control (MAP2K4 (human)): 72%; kinase still bound, per cent of control (EPHB2 (human)): 86%; kinase still bound, per cent of control (CASK (human)): 100%; kinase still bound, per cent of control (RPS6KA6 KD1 (human)): 86%; kinase still bound, per cent of control (MERTK (human)): 8.4%; kinase still bound, per cent of control (DDR2 (human)): 100%; kinase still bound, per cent of control (AKT1 (human)): 98%; kinase still bound, per cent of control (EPHA3 (human)): 85%; kinase still bound, per cent of control (STK36 (human)): 69%
